Where “and” joins values, the source holds several entries; their conditions need not be identical. Equal values may be shown once. Inconclusive results and toxic doses are left out.
System: B6C3F1 mice, ip Sarcoma M5076, median survival T/C
Test: NCI In Vivo Anticancer Drug Screen. Data for tumor model Sarcoma M5076 (intraperitoneal) in B6C3F1 mice
Conditions: endpoint: median survival time, higher = longer survival
Procedure, shortened: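 Survival measured in treated (T) and vehicle control (C) mice with transplantable tumour; result given as T divided by C.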

[1] = dose: 25.0 mg/kg/injection, schedule: Q04DX004 (ip), vehicle: saline with Tween-80
[2] = dose: 200.0 mg/kg/injection, schedule: Q04DX004 (ip), vehicle: saline with Tween-80
[3] = dose: 400.0 mg/kg/injection, schedule: Q04DX004 (ip), vehicle: saline with Tween-80
[4] = dose: 75.0 mg/kg/injection, schedule: Q04DX004 (ip), vehicle: saline with Tween-80
[5] = dose: 150.0 mg/kg/injection, schedule: Q04DX004 (ip), vehicle: saline with Tween-80
[6] = dose: 50.0 mg/kg/injection, schedule: Q04DX004 (ip), vehicle: saline with Tween-80
[7] = dose: 100.0 mg/kg/injection, schedule: Q04DX004 (ip), vehicle: saline with Tween-80
[8] = dose: 50.0 mg/kg/injection, schedule: Q04DX004 (ip), vehicle: Klucel (hydroxypropylcellulose) (HPC)
[9] = dose: 100.0 mg/kg/injection, schedule: Q04DX004 (ip), vehicle: Klucel (hydroxypropylcellulose) (HPC)
[10] = dose: 200.0 mg/kg/injection, schedule: Q04DX004 (ip), vehicle: Klucel (hydroxypropylcellulose) (HPC)
[11] = dose: 25.0 mg/kg/injection, schedule: Q04DX004 (ip), vehicle: Klucel (hydroxypropylcellulose) (HPC)

SMILES: O=c1c2ccccc2nc(-c2ccccc2)n1-c1nccs1
- T/C [1]: 94 % of control
- T/C [2]: 89 % of control
- T/C [3]: 90 % of control

SMILES: Cn1nc2c(c(Cl)c1=O)Nc1ccccc1O2
- T/C (dose: 37.5 mg/kg/injection, schedule: Q04DX004 (ip), vehicle: saline with Tween-80): 104 % of control
- T/C [4]: 97 % of control
- T/C [5]: 96 % of control

SMILES: COCCCn1c(C(Cl)(Cl)Cl)nn2c(=O)c3ccccc3nc2c1=O
- T/C [6]: 103 % of control
- T/C [7]: 99 % of control
- T/C [2]: 94 % of control
- T/C [3]: 90 % of control

SMILES: Cc1cc(=O)n(Cc2ccco2)c(=S)[nH]1
- T/C [6]: 105 % of control
- T/C [7]: 105 % of control
- T/C [2]: 100 % of control
- T/C [3]: 89 % of control
- T/C (dose: 800.0 mg/kg/injection, schedule: Q04DX004 (ip), vehicle: saline with Tween-80): 106 % of control

SMILES: CC(=O)C1C(=O)C(=O)N(c2ccccc2C)C1=O (centres undefined)
- T/C [8]: 104 % of control
- T/C [9]: 93 % of control
- T/C [10]: 102 % of control
- T/C (dose: 400.0 mg/kg/injection, schedule: Q04DX004 (ip), vehicle: Klucel (hydroxypropylcellulose) (HPC)): 108 % of control

SMILES: COC(=O)[C@@]12OC[C@]34[C@H]([C@@H](O)[C@@H]1O)[C@@]1(C)CC(=O)C(OC(=O)CC(=O)OC5=C(C)[C@@H]6C[C@H]7OC(=O)[C@H](OC(=O)/C=C(\C)C(C)C)[C@H]8[C@]9(C(=O)OC)OC[C@]78[C@H]([C@@H](O)[C@@H]9O)[C@@]6(C)CC5=O)=C(C)[C@@H]1C[C@H]3OC(=O)[C@H](OC(=O)/C=C(\C)C(C)C)[C@@H]24
- T/C (dose: 0.75 mg/kg/injection, schedule: Q04DX004 (ip), vehicle: saline + Tween-80 + alcohol): 108 % of control
- T/C (dose: 1.5 mg/kg/injection, schedule: Q04DX004 (ip), vehicle: saline + Tween-80 + alcohol): 118 % of control
- T/C (dose: 3.0 mg/kg/injection, schedule: Q04DX004 (ip), vehicle: saline + Tween-80 + alcohol): 118 % of control
- T/C (dose: 6.0 mg/kg/injection, schedule: Q04DX004 (ip), vehicle: saline + Tween-80 + alcohol): 112 % of control

SMILES: CN=C(N)N/N=C(\C)c1ccc2sc3ccc(/C(C)=N/NC(N)=NC)cc3c2c1
- T/C [1]: 113 % of control

SMILES: O=c1oc2c(O)c(O)cc3c(=O)oc4c(O)c(O)cc1c4c23
- T/C (dose: 75.0 mg/kg/injection, schedule: Q04DX004 (ip), vehicle: Klucel (hydroxypropylcellulose) (HPC)): 123 % of control
- T/C (dose: 150.0 mg/kg/injection, schedule: Q04DX004 (ip), vehicle: Klucel (hydroxypropylcellulose) (HPC)): 115 % of control
- T/C (dose: 300.0 mg/kg/injection, schedule: Q04DX004 (ip), vehicle: Klucel (hydroxypropylcellulose) (HPC)): 120 % of control
- T/C (dose: 600.0 mg/kg/injection, schedule: Q04DX004 (ip), vehicle: Klucel (hydroxypropylcellulose) (HPC)): 111 % of control
- T/C (dose: 1200.0 mg/kg/injection, schedule: Q04DX004 (ip), vehicle: Klucel (hydroxypropylcellulose) (HPC)): 108 % of control

SMILES: CN(CN1C(=O)CCC1=O)CN1C(=O)CCC1=O
- T/C (dose: 50.0 mg/kg/injection, schedule: Q04DX004 (ip), vehicle: saline): 92 % of control
- T/C (dose: 100.0 mg/kg/injection, schedule: Q04DX004 (ip), vehicle: saline): 100 % of control
- T/C (dose: 200.0 mg/kg/injection, schedule: Q04DX004 (ip), vehicle: saline): 96 % of control
- T/C (dose: 400.0 mg/kg/injection, schedule: Q04DX004 (ip), vehicle: saline): 116 % of control

SMILES: NNC(=O)c1ccc(OCc2nc3ccccc3[nH]2)cc1
- T/C [1]: 99 % of control
- T/C [6]: 102 % of control
- T/C [7]: 101 % of control
- T/C [2]: 106 % of control
- T/C [3]: 97 % of control

SMILES: CN(C)CCNC1=CC(=O)c2ccccc2C1=O
- T/C (dose: 50.0 mg/kg/injection, schedule: Q04DX004 (ip), vehicle: distilled water + Tween-80): 101 % of control
- T/C (dose: 100.0 mg/kg/injection, schedule: Q04DX004 (ip), vehicle: distilled water + Tween-80): 101 % of control

SMILES: C=C(C)/C([O-])=N/[N+](C)(C)CC(O)CCCCCCCCCCCC (centres undefined)
- T/C (dose: 12.5 mg/kg/injection, schedule: Q04DX004 (ip), vehicle: suspension in saline): 97 % of control
- T/C (dose: 25.0 mg/kg/injection, schedule: Q04DX004 (ip), vehicle: suspension in saline): 95 % of control
- T/C (dose: 50.0 mg/kg/injection, schedule: Q04DX004 (ip), vehicle: suspension in saline): 100 % of control
- T/C (dose: 100.0 mg/kg/injection, schedule: Q04DX004 (ip), vehicle: suspension in saline): 92 % of control

SMILES: O=c1ncccn1[C@@H]1O[C@H](CO)[C@H](O)C1O (some centres undefined)
- T/C (dose: 25.0 mg/kg/injection, schedule: Q01DX009 (ip), vehicle: saline): 99 % of control
- T/C (dose: 50.0 mg/kg/injection, schedule: Q01DX009 (ip), vehicle: saline): 103 % of control
- T/C (dose: 100.0 mg/kg/injection, schedule: Q01DX009 (ip), vehicle: saline): 104 % of control
- T/C (dose: 125.0 mg/kg/injection, schedule: Q04DX004 (ip), vehicle: saline): 92 % of control
- T/C (dose: 200.0 mg/kg/injection, schedule: Q01DX009 (ip), vehicle: saline): 110 % of control
- T/C (dose: 250.0 mg/kg/injection, schedule: Q04DX004 (ip), vehicle: saline): 94 % of control
- T/C (dose: 400.0 mg/kg/injection, schedule: Q01DX009 (ip), vehicle: saline): 97 % of control
- T/C (dose: 500.0 mg/kg/injection, schedule: Q04DX004 (ip), vehicle: saline): 89 % of control
- T/C (dose: 1000.0 mg/kg/injection, schedule: Q04DX004 (ip), vehicle: saline): 92 % of control

SMILES: COc1ccccc1NC(=O)C1C(=O)C(=O)N(c2ccccc2OC)C1=O (centres undefined)
- T/C [8]: 105 % of control
- T/C [9]: 97 % of control
- T/C [10]: 96 % of control

SMILES: Nc1ccccc1N
- T/C (dose: 12.0 mg/kg/injection, schedule: Q04DX004 (ip), vehicle: Klucel (hydroxypropylcellulose) (HPC)): 99 % of control
- T/C [11]: 98 % of control
- T/C [8]: 110 % of control
- T/C [9]: 98 % of control
- T/C [10]: 103 % of control

SMILES: C[C@@]12C(=O)OC(=O)[C@]1(C)[C@H]1CC[C@@H]2O1
- T/C (dose: 125.0 micrograms/kg/injection, schedule: Q01DX009 (ip), vehicle: acetone): 100 % of control
- T/C (dose: 250.0 micrograms/kg/injection, schedule: Q01DX009 (ip), vehicle: acetone): 115 % of control
- T/C (dose: 500.0 micrograms/kg/injection, schedule: Q01DX009 (ip), vehicle: acetone): 116 % of control
- T/C (dose: 1000.0 micrograms/kg/injection, schedule: Q01DX009 (ip), vehicle: acetone): 100 % of control

SMILES: NC(C/[N+]([O-])=N/O)C(=O)O (centres undefined)
- T/C (dose: 30.0 mg/kg/injection, schedule: Q04DX005 (ip), vehicle: alkali diluted with saline): 93 % of control
- T/C (dose: 120.0 mg/kg/injection, schedule: Q04DX005 (ip), vehicle: alkali diluted with saline): 103 % of control
- T/C (dose: 240.0 mg/kg/injection, schedule: Q04DX005 (ip), vehicle: alkali diluted with saline): 118 % of control

SMILES: CC(C)NC(=O)OCc1c(COC(=O)NC(C)C)c(-c2ccc(Cl)c(Cl)c2)n2c1CCC2
- T/C [4]: 161 % of control
- T/C (dose: 108.0 mg/kg/injection, schedule: Q04DX004 (ip), vehicle: saline with Tween-80): 188 % of control
- T/C [5]: 186 % of control
- T/C (dose: 180.0 mg/kg/injection, schedule: Q04DX004 (ip), vehicle: saline with Tween-80): 114 % of control
- T/C (dose: 600.0 mg/kg/injection, schedule: Q04DX004 (ip), vehicle: saline with Tween-80): 152 % of control

SMILES: CCOC(=O)C(N)CSC(=O)NC (centres undefined)
- T/C (dose: 130.0 mg/kg/injection, schedule: Q04DX004 (ip), vehicle: saline): 105 % of control
- T/C (dose: 216.0 mg/kg/injection, schedule: Q04DX004 (ip), vehicle: saline): 111 % of control and 119 % of control
- T/C (dose: 360.0 mg/kg/injection, schedule: Q04DX004 (ip), vehicle: saline): 115 % of control and 122 % of control

SMILES: COc1ccc(Cl)c2c1[nH]c1nc3nc4cc(Cl)ccc4n3nc12
- T/C [4]: 91 % of control
- T/C [5]: 90 % of control

SMILES: CC/C(=C(\c1ccccc1)c1ccc(OCCN(C)C)cc1)c1ccccc1
- T/C (dose: 12.5 mg/kg/injection, schedule: Q04DX004 (ip), vehicle: Klucel (hydroxypropylcellulose) (HPC)): 101 % of control
- T/C [11]: 107 % of control
- T/C [8]: 89 % of control and 103 % of control

SMILES: COC1C(CO)OC(n2cnc3c(=S)nc(N)[nH]c32)C1O (centres undefined)
- T/C [8]: 93 % of control
- T/C [9]: 100 % of control
- T/C [10]: 105 % of control

Reference: PubChem BioAssay AID292 (DTP/NCI, 2004)
